“Also recorded” adds a separate entry of the source. Like-named read-outs stand apart in the source and are kept apart here.
Legend:
[1] = biological target: T1, SHP2 (residues 224-528) (Homo sapiens, UniProt Q06124); experiment: Kinetic characterization of SHP2 inactivation (pNPP cleavage progress curves, kobs, kinact/KI); type: biochemical; conditions: for kinact/KI / KI (inactivation) / kinact: substrate pNPP 3 mM, 100 nM SHP2, pH 7.0, 25° C; for fold decrease in efficacy: comparator not given
T1 construct: 4× solution of SHP2 (residues 224-528)
T1 sequence (Q06124 224-528): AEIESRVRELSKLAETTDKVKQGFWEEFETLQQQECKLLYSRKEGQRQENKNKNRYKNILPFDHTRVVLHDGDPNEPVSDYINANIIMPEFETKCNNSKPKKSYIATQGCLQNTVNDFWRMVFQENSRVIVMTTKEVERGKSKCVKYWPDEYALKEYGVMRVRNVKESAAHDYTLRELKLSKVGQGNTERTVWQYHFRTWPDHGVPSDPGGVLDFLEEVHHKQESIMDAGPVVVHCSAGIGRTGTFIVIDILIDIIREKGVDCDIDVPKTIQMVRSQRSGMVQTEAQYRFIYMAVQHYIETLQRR
Description: Covalent inhibitors work by forming a covalent bond with a reactive functional group in the target enzyme. Consequently, the kinetics for enzyme inactivation by a covalent inhibitor is not an equilibrium process as with reversible inhibition. The potency of a reversible inhibitor can be measured by its IC50 value. Unlike reversible inhibitors, where inhibition is only concentration-dependent, covalent inhibitors show both time- and concentration-dependent target inhibition (a covalent bond formation is a time-dependent event). If sufficient time is available, covalent inhibitors can completely neutralize the target, rather than go to equilibrium. As a result, the potency and selectivity of a covalent inhibitor cannot be determined by IC50 values; instead, the rate of inactivation of the target (kinact) and the inhibition constant (KI) were determined. The bimolecular rate constant (kinact/KI), was chosen to rank the potency of covalent inhibitors (Ruddraraju et al., 2017, Molecular Biosystems 13(7), 1257-1279).
PTPs catalyze the dephosphorylation of tyrosine-phosphorylated protein substrates through a conserved mechanism that relies on a catalytic cysteine residue (Zhang, Z.-Y et al., 2003, Prog. Nucleic Acid Research Molecular Biology, 73, 171-220). This provides a mechanistic rationale for the assessment of electrophilic Michael acceptors, such as those synthesized in the present disclosure as potential covalent inhibitors of the SHP2. The enzymatic cleavage of para-nitrophenyl phosphate by SHP2 was measured over time in the presence of 100 μM inhibitor or DMSO, to determine the observed first-order rate constant (kobs). Based on kobs values, compounds were further evaluated in a dose-dependent manner to determine the second-order rate constant (kinact/KI) indicating the overall efficacy of the compounds, which was used to assess the structure-activity relationship (SAR) for the analogs of interest and design additional analogs (see Table 1). […] It has been known that modifications to the electronegativity of substituents proximal to electrophilic centers alter the reactivity of the electrophile.
The efficacy of covalent inhibitors can be broken down into the initial reversible binding of the compounds (KI), and the rate of covalent bond formation and enzyme inactivation (kinact). These two constants can be used individually, or as a ratio to determine the overall efficacy of the inhibitor's efficacy. To investigate the contribution to reversible binding compound (34) was evaluated, which lacks the carbonyl of the Michael acceptor to prevent the formation of a covalent adduct.
Inhibitors were evaluated for their ability to inhibit the reaction catalyzed by SHP2 using para-nitrophenyl phosphate (pNPP) as a substrate at pH 7 and 25° C. A 2× solution of inhibitor was diluted into DMG buffer (50 mM 3,3-dimethylglutarate pH 7.0, 1 mM EDTA, ionic strength adjusted to 150 mM using NaCl) was added to a clear flat-bottom 96-well plate (Corning Costar Assay Plate #9017), and serially diluted 1.5-fold, resulting in 100 μL volumes of varying inhibitor concentrations. To this was added a 4× solution of pNPP (12 mM) in DMG buffer. The reaction was initialized by the addition of a 4× solution of SHP2 (residues 224-528), resulting in a final solution of: inhibitor (100-0 μM), pNPP (3 mM), and SHP2 (100 nM). The plate was then monitored for a change in absorbance ab […] using a CLARIOstar^Plus plate reader (BMG Labetch) over the course of an hour. The resulting progress curves for each inhibitor were imported into Graphpad Prism 9 (GraphPad Software, San Diego, CA (USA)), and a baseline correction analysis was completed for fitting purposes. Each curve was fit to the equation Y=V0×(1−e^−kobs*t)/kobs.^[17.22] The kobs values were then plotted against inhibitor concentrations. If the resulting graph was linear, the kinact/KI value was determined by the slope of that line and the 95% confidence interval (95% CI). […]

[2] = biological target: T2, SHP2 (Homo sapiens, UniProt Q06124); experiment: Covalent adduct formation on SHP2 by intact protein LC-MS; type: binding; conditions: 10 μM SHP2, 60 minutes; for Found Ligand Adduct (mass shift): intact protein LC-MS; for % SHP2 Reacted (overall adduct formation): PVSN at 20 μM, compound 37 at 10 μM
T2 construct: 4× solution of SHP2 (residues 224-528)
T2 sequence (Q06124 224-528): T1 sequence (Q06124 224-528)
Method: To validate covalent modification of SHP2 by the active compounds, adduct formation on SHP2 was measured by intact protein liquid chromatography-mass spectrometry (LC-MS). With intact protein LC-MS, multiply charged states of the protein species can be deconvoluted to achieve the total mass(es). Compounds were incubated with 10 μM SHP2 for 60 minutes before being quenched with acetonitrile for LC-MS analysis by electrospray ionization (ESI) in positive mode. […] (33), and (42) (FIGS. 3A and 3B).
To unfold protein and quench protein-ligand reactivity, 10 μL of treated or untreated 10 μM SHP2 was diluted in 40 μL of 80% (v/v) formic acid initially, followed by 150 μL of LC-MS buffer (50/50 water/acetonitrile with 0.1% formic acid). 20-25 pmol per sample was analyzed by LC/MS (Agilent 1260 Infinity II with a ZORBAX Rapid Resolution High Definition 300 Å Stable Bond C3, 2.1×100 mm, 1.8 μm column) attached to an Agilent 6129 quadrupole mass spectrometer in positive ion mode. The column was held at 45° C. Mobile solution A was 0.1% formic acid in water, and mobile phase B was 0.1% formic acid in acetonitrile. The gradient used was hold at 10% B for 5 min, increase linearly to 80% B for 15 min, and then hold at 80% B for 5 min. The mass data were collected at a range of 600-1500 m/z. Raw data were processed using MestReNova. For all samples, the deconvoluted mass was calculated by taking the m/z range of 730-1100 Da, and deconvoluted mass range from 36500-37200 Da. An abundance threshold of 10% and tolerance of 30 ppm was set for deconvolution. Unreacted SHP2's total deconvoluted mass was 36602±10 Da; for each deconvolution, the highest deconvoluted mass intensity was utilized as the mass pivot point to determine and identify reacted SHP2 adducts. To calculate the percent SHP2 reacted, the relative abundance intensity of reacted SHP2 was divided by the total relative abundance intensities of unreacted and reacted SHP2.

[3] = pH 7, role: inhibitor, read-out: kinact/KI (converted)

| Structure (SMILES) | kinact/KI [1, 3] [M⁻¹ s⁻¹] | SHP2 inhibition efficacy (in words) ([1]; role: inhibitor) | also measured |
| --- | --- | --- | --- |
| C=C1C(=O)[C@@]2(C(=O)N3CCN(c4ccc(-c5ccccc5)cc4)CC3)CC(=O)C[C@@H]1C2 [Compound 41] | 311 |  | KI (inactivation) ([1]; role: inhibitor): 10.2 µM; kinact ([1]; role: inhibitor): 0.00317 s⁻¹ |
| C=C1C(=O)[C@@]2(C(=O)N3CCN(c4ccc(C(C)(C)C)cc4)CC3)CC(=O)C[C@@H]1C2 [Compound 40] | 291 |  |  |
| C=C1CC2(C(=O)N3CCN(c4ccc(Br)cc4)CC3)CC(=O)CC1C2 (stereo not drawn) [Compound 34] |  | complete loss of SHP2 inhibition efficacy; also recorded: inactive against SHP2; also recorded: complete loss of activity |  |
| C=C1C(=O)[C@@]2(C(=O)N3CCCC3)CC(=O)C[C@@H]1C2 [Compound 17] | 13.4 |  |  |
| C=C1C(=O)[C@@]2(C(=O)N3CCN(C(C)=O)CC3)CC(=O)C[C@@H]1C2 [Compound 26] | 15.4 | able to inhibit the catalytic activity of SHP2 |  |
| C=C1C(=O)[C@@]2(C(=O)N3CCCCC3)CC(=O)C[C@@H]1C2 [Compound 19] | 19.4 |  |  |
| C=C1C(=O)[C@@]2(C(=O)N3CCN(c4ccc(Cl)cc4)CC3)CC(=O)C[C@@H]1C2 [Compound 36] | 220 |  |  |
| C=C1C(=O)[C@@]2(C(=O)N3CCCCCC3)CC(=O)C[C@@H]1C2 [Compound 20] | 22.7 |  |  |
| C=C1C(=O)[C@@]2(C(=O)N3CCN(c4ccc(OC)cc4)CC3)CC(=O)C[C@@H]1C2 [Compound 39] | 46.5 |  |  |
| C=C1C(=O)[C@@]2(C(=O)N3CCN(c4ccc(Br)cc4)CC3)CC(=O)C[C@@H]1C2 [Compound 33] | 367 |  | KI (inactivation) ([1]; role: inhibitor): 69.7 µM; kinact ([1]; role: inhibitor): 0.0219 s⁻¹; Found Ligand Adduct (mass shift) [2]: 412 Da; % SHP2 Reacted (overall adduct formation) [2]: 30% |
| C=C1C(=O)[C@@]2(C(=O)N3CCN(c4ccc(C)cc4)CC3)CC(=O)C[C@@H]1C2 [Compound 38] | 101 |  | KI (inactivation) ([1]; role: inhibitor): 176 µM; kinact ([1]; role: inhibitor): 0.0172 s⁻¹ |
| C=C1C(=O)[C@@]2(C(=O)N3CCOCC3)CC(=O)C[C@@H]1C2 [Compound 21] | 16 |  | fold decrease in efficacy ([1]; role: inhibitor): ~2 fold |
| C=C1C(=O)[C@@]2(C(=O)N3CC4(COC4)C3)CC(=O)C[C@@H]1C2 [Compound 22] | 12.9 |  | fold decrease in efficacy ([1]; role: inhibitor): ~2 fold |
| C=C1C(=O)[C@@]2(C(=O)N3CCN(c4ccccc4C#N)CC3)CC(=O)C[C@@H]1C2 [Compound 32] | 367 |  | fold improvement in efficacy over the unsubstituted piperidine analog (19) ([1]; role: inhibitor, kinact/KI relative to 19): approximately 19 fold; fold increase in efficacy relative to the unsubstituted phenyl ring ([1]; role: inhibitor, kinact/KI relative to unsubstituted phenyl): 9.25 fold |
| C=CS(=O)(=O)Oc1ccccc1 [PVSN, phenyl vinyl sulfonate, reference compound] | 3.52 |  | % SHP2 Reacted (overall adduct formation) [2]: 21% |
| C=C1C(=O)[C@@]2(C(=O)NCCC)CC(=O)C[C@@H]1C2 [Compound 11] | 14.3 | slightly less potent than compound (10) | kinact/KI ([1]; role: inhibitor): 865.8 M^−1Min^−1 |
| C=C1C(=O)[C@@]2(C(=O)N(CC)CC)CC(=O)C[C@@H]1C2 [Compound 12] | 17.5 | more effective than compound (11) and the cyclic matched molecular pair (MMP) compound (17) |  |
| C=C1C(=O)[C@@]2(C(=O)N3CCN(C(=O)OC(C)(C)C)CC3)CC(=O)C[C@@H]1C2 [Compound 25] | 28.1 | able to inhibit the catalytic activity of SHP2 |  |
| C=C1C(=O)[C@@]2(C(=O)N3CCN(c4ccccc4)CC3)CC(=O)C[C@@H]1C2 [Compound 30] | 39.6 | small improvement in efficacy |  |
| C=C1C(=O)[C@@]2(C(=O)N3CCN(c4ccc(C(F)(F)F)cc4)CC3)CC(=O)C[C@@H]1C2 [Compound 42] | 417 |  | fold increase in efficacy over compound 11 ([1]; role: inhibitor, kinact/KI relative to 11): 29 fold; fold increase in efficacy compared to PVSN ([1]; role: inhibitor, kinact/KI relative to PVSN): 119 fold; KI (inactivation) ([1]; role: inhibitor): 47.8 µM; kinact ([1]; role: inhibitor): 0.0199 s⁻¹; Found Ligand Adduct (mass shift) [2]: 410 Da; % SHP2 Reacted (overall adduct formation) [2]: 43% |
| C=C1C(=O)[C@@]2(C(=O)N3CCC(F)(F)CC3)CC(=O)C[C@@H]1C2 [Compound 23] | 36.8 | more effective SHP2 inhibitor | kinact/KI ([1]; role: inhibitor): 2,026.8 M^−1Min^−1 |
| C=C1C(=O)[C@@]2(C(=O)N3CCN(c4ccc(F)cc4)CC3)CC(=O)C[C@@H]1C2 [Compound 35] | 97.6 |  | KI (inactivation) ([1]; role: inhibitor): 112 µM; kinact ([1]; role: inhibitor): 0.0109 s⁻¹ |

— patent US20260327239A1, “COMPOUNDS FOR COVALENT INHIBITION OF SHP2” (Purdue Research Foundation, priority 2023, published 2026)
